# Laboratory results: patent US20150306182A1, “FAT LOSS COMPOSITION” (priority 2012, published 2015)
# “And” between values parts separate entries of the source, which are not always exact repeats. Equal entries are not always repeated. “Also recorded” adds a separate entry of the source. No end group written: not given here.
# Key:
# [1] = Cloprostenol sodium alone in male and female subjects (Example 1); type: in vivo, human
# Experimental: Cloprostenol sodium was taken by eight male and two female subjects at a dosage of 120 micrograms for every 2501b (113 kg) body weight. The dosage was calculated pro rata based on the weight of the subject involved.
# With the female subjects the process was identical. However, the dosage was reduced to 15 μg per shot for menstrual reasons.
# [2] = minimal dose of 40 μg; cited from earlier work
# [3] = acute administration in humans, case reports; cited from earlier work
# hGH receptor = target: T1, hGH receptor (Homo sapiens, UniProt P10912); conditions: unlike Human Growth Hormone; cited from earlier work
# T1 sequence (P10912 19-638): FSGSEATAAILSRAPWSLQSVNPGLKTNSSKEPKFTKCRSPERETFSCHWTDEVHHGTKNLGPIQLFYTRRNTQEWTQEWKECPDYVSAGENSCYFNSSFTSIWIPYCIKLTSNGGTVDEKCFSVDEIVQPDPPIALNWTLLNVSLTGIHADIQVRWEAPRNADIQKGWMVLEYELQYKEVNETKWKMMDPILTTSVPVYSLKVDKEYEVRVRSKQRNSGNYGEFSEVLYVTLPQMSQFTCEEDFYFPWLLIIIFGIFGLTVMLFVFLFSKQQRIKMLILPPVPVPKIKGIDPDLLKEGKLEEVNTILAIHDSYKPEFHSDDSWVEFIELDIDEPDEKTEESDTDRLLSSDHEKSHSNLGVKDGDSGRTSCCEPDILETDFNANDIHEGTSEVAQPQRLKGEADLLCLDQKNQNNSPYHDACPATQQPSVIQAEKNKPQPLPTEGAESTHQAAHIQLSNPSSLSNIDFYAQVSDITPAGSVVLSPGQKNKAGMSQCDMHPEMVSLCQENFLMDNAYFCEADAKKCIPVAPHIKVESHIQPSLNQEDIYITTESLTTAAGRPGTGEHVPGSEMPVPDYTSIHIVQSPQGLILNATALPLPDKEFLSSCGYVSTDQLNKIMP
# cell proliferation = conditions: unlike Human Growth Hormone; cited from earlier work
# ob/ob mice = conditions: cited from earlier work
# [4] = system: isolated adipose tissue from obese rodents; conditions: cited from earlier work
# [5] = system: isolated adipose tissue from obese humans; conditions: cited from earlier work
# adipose tissue = conditions: cited from earlier work
# [6] = Four week trial of amino acids 176-191 of human growth hormone alone (Example 2); type: in vivo; conditions: for Bowel Habits (per day): one value per test subject
# Source text: Ten subjects were given a daily subcutaneous dose of 2 International Units (IU) of amino acids 176-191 of human growth hormone for a four week trial period.
# [7] = cited from earlier work
# [8] = ten subjects, daily subcutaneous 2 IU, four weeks
compound,measurement,setting,value
"O=C(O)CCC/C=C\CC1C(O)CC(O)C1/C=C/C(O)COc1cccc(Cl)c1 (centres unmarked) [Cloprostenol sodium, cloprostenol sodium]",Willingness to continue use,[1]; all recipients,None of the recipients wished to continue to use this product for more than three days
same,Side effects and willingness to continue in females,"[1]; females, 15 μg per shot",No female subjects wished to continue using this product due to severe stomach cramps
same,Side effects in males,"[1]; males, shots of 30 μg at a time",very severe stomach cramps and extensive bowel movements
same,Comments (stopping of use),"[1]; same dosing, one comment per test subject",Stopped after 2 days; also recorded: Stopped as cramp and pain; also recorded: Stopped after 1st day; also recorded: Stopped after 3 days
"O=C(O)CCC/C=C\C[C@@H]1C(/C=C/[C@@H](O)COc2cccc(Cl)c2)[C@H](O)C[C@@H]1O (stereo partly drawn) [Cloprostenol, (5Z)-7-[(1R,3R,5S)-2-[(E,3R)-4-(3-chlorophenoxy)-3-hydroxybut-1-enyl]-3,5-dihydroxycyclopentyl]hept-5-enoic acid]",Bowel evacuation after dosing,[2],within ten minutes users will have to evacuate their bowels
"O=[N+]([O-])c1ccc(O)c([N+](=O)[O-])c1 [DNP, 2,4-Dinitrophenol]",Lethal acute administration,[3],20 to 50 mg/kg
"HGH Fragment 177-191: Human growth hormone fragment of the cited studies; shares amino acid sequence with Human Growth Hormone (LRIVQCRSVEGSCGF; ends and bridges not checked; cysteine pairing not given here; UniProt P01241 203-217, looked up, fragment)",Competition for the hGH receptor,hGH receptor,does not compete for the hGH receptor
same,Induction of cell proliferation,cell proliferation,nor does it induce cell proliferation
same,"Energy expenditure, glucose and fat oxidation",ob/ob mice,increasing energy expenditure and glucose and fat oxidation
same,In vitro lipogenic activity,[4],decreased lipogenic activity
same,In vitro lipolytic activity,[4],increased in vitro lipolytic activity
same,In vitro lipogenic activity,[5],decreased lipogenic activity
same,In vitro lipolytic activity,[5],increased in vitro lipolytic activity
same,Lipolytic activity in adipose tissue,adipose tissue; dosage of 500 μg,increase lipolytic activity in adipose tissue
same,Impact on insulin sensitivity,adipose tissue; in vivo,no negative impact on insulin sensitivity
"YLRIVQCRSVEGSCGF (cysteine pairing not given here) [HGH fragment 176-191, freely available commercially]",Body Fat,"[6]; Test subject 1, Week 4, start 17%",15%
same,Weight,"[6]; Test subject 1, Week 4, start 98 kg",(96 kg)
same,Weight,"[6]; Test subject 1, Week 4, start 217 lb",212 lb
same,Body Fat,"[6]; Test subject 2, Week 4, start 31%",28%
same,Weight,"[6]; Test subject 2, Week 4, start 92 kg",(89 kg)
same,Weight,"[6]; Test subject 2, Week 4, start 203 lb",196 lb
same,Body Fat,"[6]; Test subject 3, Week 4, start 18%",15%
same,Weight,"[6]; Test subject 3, Week 4, start 108 kg",(106 kg)
same,Weight,"[6]; Test subject 3, Week 4, start 238 lb",233 lb
same,Body Fat,"[6]; Test subject 4, Week 4, start 10%",10%
same,Weight,"[6]; Test subject 4, Week 4, start 92 kg",(92 kg)
same,Weight,"[6]; Test subject 4, Week 4, start 203 lb",203 lb
same,Body Fat,"[6]; Test subject 5, Week 4, start 25%",24%
same,Weight,"[6]; Test subject 5, Week 4, start 105 kg",(103 kg)
same,Weight,"[6]; Test subject 5, Week 4, start 231 lb",226 lb
same,Body Fat,"[6]; Test subject 6, Week 4, start 32%",30%
same,Weight,"[6]; Test subject 6, Week 4, start 68 kg",(67 kg)
same,Weight,"[6]; Test subject 6, Week 4, start 150 lb",147 lb
same,Body Fat,"[6]; Test subject 7, Week 4, start 30%",28%
same,Weight,"[6]; Test subject 7, Week 4, start 79 kg",(76 kg)
same,Weight,"[6]; Test subject 7, Week 4, start 173 lb",168 lb
same,Body Fat,"[6]; Test subject 8, Week 4, start 34%",30%
same,Weight,"[6]; Test subject 8, Week 4, start 108 kg",(103 kg)
same,Weight,"[6]; Test subject 8, Week 4, start 238 lb",226 lb
same,Body Fat,"[6]; Test subject 9, Week 4, start 10%",10%
same,Weight,"[6]; Test subject 9, Week 4, start 79 kg",(79 kg)
same,Weight,"[6]; Test subject 9, Week 4, start 175 lb",175 lb
same,Body Fat,"[6]; Test subject 10, Week 4, start 21%",18%
same,Weight,"[6]; Test subject 10, Week 4, start 86 kg",(83 kg)
same,Weight,"[6]; Test subject 10, Week 4, start 189 lb",182 lb
same,Bowel Habits (per day),"[6]; Week 1, daily subcutaneous 2 IU",2 per day and 1 per day
same,Bowel Habits (per day),"[6]; Week 2, daily subcutaneous 2 IU",2 per day and 1 per day
same,Bowel Habits (per day),"[6]; Week 3, daily subcutaneous 2 IU",1 per day and 2 per day
same,Bowel Habits (per day),"[6]; Week 4, daily subcutaneous 2 IU",1 per day and 2 per day
same,Completion of trial,[6]; [8],All subjects completed the four week trial
same,Reduction in body fat and weight loss,[6]; [8],no real reduction in body fat or meaningful weight loss
same,Side effects,[7]; clinical trial and experimental users,No side effects have been reported
same,Stimulation of the metabolism of body fat,[7]; humans,highly successful at stimulating the metabolism of body fat in humans
same,Average overall weight loss (fat),"[7]; in three months, oral dosing",3 kg
same,Most effective daily dose,"[7]; lowest of 6 doses, oral, 3 months",1 mg
same,Weight loss relative to test subjects not taking the peptide,"[7]; three months, more than subjects not taking the peptide",300%
